# In publication PMC11995724, “Antibiotic target discovery by integrated phenotypic and activity-based profiling of electrophilic fragments” (Cell chemical biology, 2025):
# Where a name gives a salt, the structure may show the parent alone.
# Assay: in vitro
# Conditions: human, hek293t cells
row,SMILES,"viability at 48 h, 25 µM [%]"
1,"Cc1csc(C2(NC(=O)CCl)CCOCC2)n1 [7-J03, 2-chloro-N-[4-(4-methyl-1,3-thiazol-2-yl)oxan-4-yl]acetamide]",0.732
2,"Cc1ccccc1C(NC(=O)CCl)c1ccccc1C [7-J04, N-[bis(2-methylphenyl)methyl]-2-chloroacetamide]",0.589
3,"CC(Cl)C(=O)NCC(c1ccc(Cl)cc1)n1cccn1 (stereo not drawn) [7-J05, 2-chloro-N-[2-(4-chlorophenyl)-2-(1H-pyrazol-1-yl)ethyl]propanamide]",100
4,"O=C(CCl)NC1CN(c2ccc(C(F)(F)F)cc2)C1 [7-J06, 2-chloro-N-{1-[4-(trifluoromethyl)phenyl]azetidin-3-yl}acetamide]",0.892
5,"CC(Cl)C(=O)N1CCN(CC(F)(F)C(F)F)CC1 (stereo not drawn) [7-J07, 2-chloro-1-[4-(2,2,3,3-tetrafluoropropyl)piperazin-1-yl]propan-1-one]",96.1
6,"O=C(CCl)NC1(c2nc(-c3ccccc3)c[nH]2)CCCC1 [7-J08, 2-chloro-N-[1-(4-phenyl-1H-imidazol-2-yl)cyclopentyl]acetamide hydrochloride]",0.673
7,"CC(Cl)C(=O)NCCCc1c[nH]c2ccc(F)cc12 (stereo not drawn) [7-J09, 2-chloro-N-[3-(5-fluoro-1H-indol-3-yl)propyl]propanamide]",96
8,"O=C(CCl)NC1CCCN(Cc2ccccc2)C1=O (stereo not drawn) [7-J10, N-(1-benzyl-2-oxopiperidin-3-yl)-2-chloroacetamide]",55.1
9,"CC(Cl)C(=O)NCC1CCN(C)c2ccccc21 (stereo not drawn) [7-J11, 2-chloro-N-[(1-methyl-1,2,3,4-tetrahydroquinolin-4-yl)methyl]propanamide]",79.9
10,"CN(C)C(=O)C(CNC(=O)CCl)c1ccccc1 (stereo not drawn) [7-J12, 3-(2-chloroacetamido)-N,N-dimethyl-2-phenylpropanamide]",1.26
11,"Cc1ccc(NC(=O)C2(CNC(=O)C(C)Cl)CCCC2)cc1C (stereo not drawn) [7-J13, 1-[(2-chloropropanamido)methyl]-N-(3,4-dimethylphenyl)cyclopentane-1-carboxamide]",108
12,"O=C(CCl)N(CCCO)C1CCCc2ccccc21 (stereo not drawn) [7-J14, 2-chloro-N-(3-hydroxypropyl)-N-(1,2,3,4-tetrahydronaphthalen-1-yl)acetamide]",0.693
13,"COc1ccc2nnc(CNC(=O)C(C)Cl)n2n1 (stereo not drawn) [7-J15, 2-chloro-N-({6-methoxy-[1,2,4]triazolo[4,3-b]pyridazin-3-yl}methyl)propanamide]",90.2
14,"CN(C(=O)CCl)C(c1ccc(Cl)cc1)C(F)(F)F (stereo not drawn) [7-J16, 2-chloro-N-[1-(4-chlorophenyl)-2,2,2-trifluoroethyl]-N-methylacetamide]",0.718
15,"Cc1cc2ncn(CC(NC(=O)C(C)Cl)C3CC3)c2cc1C (stereo not drawn) [7-J17, 2-chloro-N-[1-cyclopropyl-2-(5,6-dimethyl-1H-1,3-benzodiazol-1-yl)ethyl]propanamide]",84.7
16,"O=C(CCl)NCCc1cccc2c1Oc1ccccc1O2 [7-J18, 2-chloro-N-[2-(oxanthren-1-yl)ethyl]acetamide]",0.958
17,"CC(Cl)C(=O)NCc1cc(C(F)(F)F)cs1 (stereo not drawn) [7-J19, 2-chloro-N-{[4-(trifluoromethyl)thiophen-2-yl]methyl}propanamide]",97.1
18,"O=C(CCl)N(CC1=CCCOC1)Cc1ccccc1 [7-J20, N-benzyl-2-chloro-N-[(5,6-dihydro-2H-pyran-3-yl)methyl]acetamide]",0.586
19,"O=C(CCl)NCc1cc(O)ccc1Cl [7-J21, 2-chloro-N-[(2-chloro-5-hydroxyphenyl)methyl]acetamide]",0.249
20,"CC(C)C(NC(=O)CCl)c1ccc(Cl)cc1F (stereo not drawn) [7-J22, 2-chloro-N-[1-(4-chloro-2-fluorophenyl)-2-methylpropyl]acetamide]",0.584
21,"CC(Cl)C(=O)NCc1ncn(Cc2cccc(F)c2)n1 (stereo not drawn) [7-K03, 2-chloro-N-({1-[(3-fluorophenyl)methyl]-1H-1,2,4-triazol-3-yl}methyl)propanamide]",111
22,"CC(Cl)C(=O)N1CCC(n2ncc3ccccc32)C1 (stereo not drawn) [7-K04, 2-chloro-1-[3-(1H-indazol-1-yl)pyrrolidin-1-yl]propan-1-one]",92.4
23,"CC(Cl)C(=O)NCc1csc(-c2ccco2)n1 (stereo not drawn) [7-K05, 2-chloro-N-{[2-(furan-2-yl)-1,3-thiazol-4-yl]methyl}propanamide]",90.6
24,"CC(Cl)C(=O)N1CCN(C(=O)C(F)(F)F)C2(CCCCC2)C1 (stereo not drawn) [7-K06, 2-chloro-1-[1-(2,2,2-trifluoroacetyl)-1,4-diazaspiro[5.5]undecan-4-yl]propan-1-one]",74
25,"CC(Cl)C(=O)N1CCc2sccc2C1c1cccs1 (stereo not drawn) [7-K07, 2-chloro-1-[4-(thiophen-2-yl)-4H,5H,6H,7H-thieno[3,2-c]pyridin-5-yl]propan-1-one]",87.1
26,"CC(Cl)C(=O)NC1CCN(c2nnnn2C)CC1 (stereo not drawn) [7-K08, 2-chloro-N-[1-(1-methyl-1H-1,2,3,4-tetrazol-5-yl)piperidin-4-yl]propanamide]",82.1

row,SMILES,"viability at 48 h, 25 µM [%]"
1,"CC(Cl)C(=O)N1Cc2cnn(C)c2C1 (stereo not drawn) [7-K09, 2-chloro-1-{1-methyl-1H,4H,5H,6H-pyrrolo[3,4-c]pyrazol-5-yl}propan-1-one]",87
2,"CC(Cl)C(=O)NC1CCc2nc(-c3cc(F)ccc3F)cn2C1 (stereo not drawn) [7-K10, 2-chloro-N-[2-(2,5-difluorophenyl)-5H,6H,7H,8H-imidazo[1,2-a]pyridin-6-yl]propanamide]",77.5
3,"CC(Cl)C(=O)N1CCN(C2=NS(=O)(=O)c3ccccc32)CC1 (stereo not drawn) [7-K11, 3-[4-(2-chloropropanoyl)piperazin-1-yl]-1lambda6,2-benzothiazole-1,1-dione]",94.9
4,"CC(Cl)C(=O)N1CCC(c2nc(C3CC3)no2)(C(F)(F)F)C1 (stereo not drawn) [7-K12, 2-chloro-1-[3-(3-cyclopropyl-1,2,4-oxadiazol-5-yl)-3-(trifluoromethyl)pyrrolidin-1-yl]propan-1-one]",83.5
5,"CC(Cl)C(=O)NCC1CCCCN1C(=O)C(F)(F)F (stereo not drawn) [7-K13, 2-chloro-N-{[1-(2,2,2-trifluoroacetyl)piperidin-2-yl]methyl}propanamide]",83.8
6,"CC(Cl)C(=O)NC1(C(=O)Nc2ccccc2)CC1 (stereo not drawn) [7-K14, 1-(2-chloropropanamido)-N-phenylcyclopropane-1-carboxamide]",52
7,"CC(Cl)C(=O)NCc1ccccc1S(=O)(=O)N1CCOCC1 (stereo not drawn) [7-K15, 2-chloro-N-{[2-(morpholine-4-sulfonyl)phenyl]methyl}propanamide]",86
8,"CC(Cl)C(=O)N(C)C[C@@H]1C[C@H](F)CN1c1ccnc(N(C)C)n1 (stereo partly drawn) [7-K16, 2-chloro-N-{[(2S,4S)-1-[2-(dimethylamino)pyrimidin-4-yl]-4-fluoropyrrolidin-2-yl]methyl}-N-methylpropanamide]",79.5
9,"CC(Cl)C(=O)N1CCn2c(nn(CC(=O)N(C)C)c2=O)C1 (stereo not drawn) [7-K17, 2-[7-(2-chloropropanoyl)-3-oxo-2H,3H,5H,6H,7H,8H-[1,2,4]triazolo[4,3-a]pyrazin-2-yl]-N,N-dimethylacetamide]",83.1
10,"CC(Cl)C(=O)NCc1nnc(-c2ccncc2F)s1 (stereo not drawn) [7-K18, 2-chloro-N-{[5-(3-fluoropyridin-4-yl)-1,3,4-thiadiazol-2-yl]methyl}propanamide]",78.4
11,"CC(Cl)C(=O)NC1CCCN(c2cnn(C)c2)C1 (stereo not drawn) [7-K19, 2-chloro-N-[1-(1-methyl-1H-pyrazol-4-yl)piperidin-3-yl]propanamide]",75.7
12,"CC(Cl)C(=O)NC1(C(=O)N(C)C)CC(F)(F)C1 (stereo not drawn) [7-K20, 1-(2-chloropropanamido)-3,3-difluoro-N,N-dimethylcyclobutane-1-carboxamide]",83.7
13,"CC(Cl)C(=O)NC(c1cc(Cl)ccc1Cl)C1CCOC1 (stereo not drawn) [7-K21, 2-chloro-N-[(2,5-dichlorophenyl)(oxolan-3-yl)methyl]propanamide]",87.9
14,"CC(Cl)C(=O)N1CCN(c2nc3ccccc3o2)C(C)C1 (stereo not drawn) [7-K22, 1-[4-(1,3-benzoxazol-2-yl)-3-methylpiperazin-1-yl]-2-chloropropan-1-one]",76.1
15,"O=C(CCl)NC1CCN(C(=O)COc2ccccc2)C1 (stereo not drawn) [7-L03, 2-chloro-N-[1-(2-phenoxyacetyl)pyrrolidin-3-yl]acetamide]",0.757
16,"CN1c2ccccc2C(NC(=O)CCl)CS1(=O)=O (stereo not drawn) [7-L04, 2-chloro-N-(1-methyl-2,2-dioxo-3,4-dihydro-1H-2lambda6,1-benzothiazin-4-yl)acetamide]",0.505
17,"CC(Cl)C(=O)NCCS(=O)(=O)Nc1ccccn1 (stereo not drawn) [7-L05, 2-chloro-N-{2-[(pyridin-2-yl)sulfamoyl]ethyl}propanamide]",103
18,"O=C(CCl)NCC1CCN(C(=O)c2ccccc2)CC1 [7-L06, N-[(1-benzoylpiperidin-4-yl)methyl]-2-chloroacetamide]",0.868
19,"CC(Cl)C(=O)N1CCC(NS(=O)(=O)c2cccs2)CC1 (stereo not drawn) [7-L07, N-[1-(2-chloropropanoyl)piperidin-4-yl]thiophene-2-sulfonamide]",99.7
20,"CN(CC(=O)NC1CCC(O)CC1)C(=O)CCl (stereo not drawn) [7-L08, 2-chloro-N-{[(4-hydroxycyclohexyl)carbamoyl]methyl}-N-methylacetamide]",0.707
21,"CC(Cl)C(=O)NCCc1ccc[nH]1 (stereo not drawn) [7-L09, 2-chloro-N-[2-(1H-pyrrol-2-yl)ethyl]propanamide]",91.9
22,"CCC(c1cc(Cl)cc(Cl)c1)N(C)C(=O)CCl (stereo not drawn) [7-L10, 2-chloro-N-[1-(3,5-dichlorophenyl)propyl]-N-methylacetamide]",0.495
23,"CC(Cl)C(=O)N1CCCC1c1cccc2c1OCCO2 (stereo not drawn) [7-L11, 2-chloro-1-[2-(2,3-dihydro-1,4-benzodioxin-5-yl)pyrrolidin-1-yl]propan-1-one]",89.6
24,"CC1CCCN1C(=O)CNC(=O)CCl (stereo not drawn) [7-L12, 2-chloro-N-[2-(2-methylpyrrolidin-1-yl)-2-oxoethyl]acetamide]",83.6
25,"CC(Cl)C(=O)N1CCC(C(=O)c2cccs2)CC1 (stereo not drawn) [7-L13, 2-chloro-1-[4-(thiophene-2-carbonyl)piperidin-1-yl]propan-1-one]",86.7
